Measured values published in patent US8084429B2, “Compounds and their analgesic applications” (priority 2002, dated 2011).
Starred links: 1 amine or outer side, 2 acyl side, 3 side chain; linkers in the order of their positions; H or OH if unused. Positions of bridges follow the written chain, without caps; N, C: chain ends. Non-standard residues stand in square brackets, D forms with d. Residues, ends and D or L forms follow the SMILES beside them. Chains are numbered I, II in the order given. NHNH = N(N[*:2])[*:1]

Test system: rat
Assay: observation of undesirable effects after intrathecal administration
Format: in vivo
Procedure: A silicone catheter was introduced into the intrathecal space of a rat in the cervical region of the spine, having an external diameter of 0.64 mm and an internal diameter of 0.3 mm. The 12 cm long catheter was prepared in the following way: at a distance of 7.5 cm from the end of the catheter, a flange was made around it with soft silicone glue. The remaining 4.5 cm stretch of the catheter was extended to the outside and connected to a 30G needle mounted on a 25 microliter Hamilton syringe. The implantation of the catheter was made under general anaesthesia. After shaving the coat from the shoulders and neck, the rat was placed in a stereotactic apparatus. The 1.5 cm long incision was made centrally, front to rear, along the axis of the spine. After reaching the muscles, they were prised apart and access to the basal membrane was prepared. The basal membrane was incised. The prepared catheter, filled with a sterile physiological saline solution, was inserted the through the incision in the membrane to a depth of 7.5 cm towards the rear, so that its end was found at the location of the L1. The muscle and skin were sutured. After recovery from general anaesthesia the rats were placed in separate cages. Biphaline was administered and measurements were made during the second day following the operation. All epidural injections were made at a constant volume of 10 microliters. Following the injection, the catheter was rinsed with 15 microliters of sterile physiological saline solution. Analgesis was measured in relation to a tail retraction test to which a thermal stimulus was applied in the form of a beam of light with a temperature of 55° C. The temperature and focus of the light was such that the time of reaction of the rat fit within the 2-3 second margin. The maximum time that the tail was agitated with the pain-stimulating light stimulus was set as 7 seconds, so as not to cause tail burns connected with a prolonged exposure of tissues to temperature. The pain-stimulating stimulus threshold was determined previous to administration of the compounds, as well as at the 5, 15, 30, 60 and 120 minutes following the administration. The degree of analgesis was expressed as a percent of the maximum possible effect (denoted as % MPE) according to the following equation: […]

`CSCC[C@@H](NC(=O)[C@@H](N)Cc1ccc(O)cc1)C(=O)NCC(=O)N[C@@H](Cc1ccccc1)C(=O)NNC(=O)[C@H](Cc1ccccc1)NC(=O)CNC(=O)[C@@H](CCSC)NC(=O)[C@@H](N)Cc1ccc(O)cc1` [(Tyr-D-Met-Gly-Phe-NH—)2, (Tyr-D-Met-Gly-Phe-NH-)2] (I: H-Y[dM]GF / II: H-Y[dM]GF; linker I:C-II:C via NHNH) was tested, and the undesirable effects (0.05 micrograms intrathecal) was “No undesirable effects were observed”.
In the case of `C[C@@H](NC(=O)[C@@H](N)Cc1ccc(O)cc1)C(=O)NCC(=O)N[C@@H](Cc1ccccc1)C(=O)NNC(=O)[C@H](Cc1ccccc1)NC(=O)CNC(=O)[C@@H](C)NC(=O)[C@@H](N)Cc1ccc(O)cc1` [biphaline, (Tyr-D-Ala-Gly-Phe-NH-)2], the undesirable effects (0.005 micrograms, then 0.003 micrograms every half hour for 8 hours, intrathecal) is reported as “No undesirable effects were observed”, the undesirable effects (0.5 micrograms intrathecal) is reported as “No undesirable effects were observed” and the duration of stiffness (25 micrograms intrathecal) is reported as 4 h. The muscle stiffness (25 micrograms intrathecal, after three minutes following the injection) was “stiffness of limb and back muscles was observed”, the respiratory ability (25 micrograms intrathecal, during stiffness) was “respiratory ability was maintained” and the respiratory depression (extremely high dosages, as much as a thousand-fold the minimal effective analgesic dose) was “did not cause respiratory depression”.
With `C[C@H](O)[C@@H](NC(=O)[C@@H](N)Cc1ccc(O)cc1)C(=O)NCC(=O)N[C@@H](Cc1ccccc1)C(=O)NNC(=O)[C@H](Cc1ccccc1)NC(=O)CNC(=O)[C@H](NC(=O)[C@@H](N)Cc1ccc(O)cc1)[C@H](C)O` [(Tyr-D-Thr-Gly-Phe-NH—)2, (Tyr-D-Thr-Gly-Phe-NH-)2] (I: H-Y[dT]GF / II: H-Y[dT]GF; linker I:C-II:C via NHNH) the undesirable effects (0.05 micrograms intrathecal) was “No undesirable effects were observed”.
For `NC(=O)CC[C@@H](NC(=O)[C@@H](N)Cc1ccc(O)cc1)C(=O)NCC(=O)N[C@@H](Cc1ccccc1)C(=O)NNC(=O)[C@H](Cc1ccccc1)NC(=O)CNC(=O)[C@@H](CCC(N)=O)NC(=O)[C@@H](N)Cc1ccc(O)cc1` [(Tyr-D-Gln-Gly-Phe-NH—)2, (Tyr-D-Gln-Gly-Phe-NH-)2] (I: H-Y[dQ]GF / II: H-Y[dQ]GF; linker I:C-II:C via NHNH), the undesirable effects (0.05 micrograms intrathecal) was “No undesirable effects were observed”.
In the case of `CC(C)C[C@@H](NC(=O)[C@@H](N)Cc1ccc(O)cc1)C(=O)NCC(=O)N[C@@H](Cc1c[nH]c2ccccc12)C(=O)NNC(=O)[C@H](Cc1c[nH]c2ccccc12)NC(=O)CNC(=O)[C@@H](CC(C)C)NC(=O)[C@@H](N)Cc1ccc(O)cc1` [(Tyr-D-Leu-Gly-Trp-NH—)2, (Tyr-D-Leu-Gly-Trp-NH-)2] (I: H-Y[dL]GW / II: H-Y[dL]GW; linker I:C-II:C via NHNH), the undesirable effects (0.05 micrograms intrathecal) is reported as “No undesirable effects were observed”.
